# Where two headings read alike, the source gives them in different places. Where a SMILES comes first, the peptide text is derived from it. Bridges are numbered along the chain shown (N, C = ends). [ ]: non-standard residue; d: D form. The star is where a group is joined. NMePhe(4-NMe2) = CN[C@@H](Cc1ccc(N(C)C)cc1)C(=O)O; Pip(4-oxo) = O=C1CCN[C@H](C(=O)O)C1; Picolinoyl(3-OH) = O=C(c1ncccc1O)*; Phg = N[C@H](C(=O)O)c1ccccc1; dAbu = CC[C@@H](N)C(=O)O
# What was measured:
# [1] = system: HLAR, High level Aminoglycoside Resistance in Enterococci; assay: Binding of fluorescently labelled antibiotic, resistant vs non-resistant form (Table 3); format: cell-based; conditions: resistant relative to non-resistant form
# Method: (§1) Table 3: Antibiotic resistance mechanism in clinically relevant micro-organisms and alteration in the amount of antibiotics in resistant micro-organisms. The alteration of the amount of detectable labelled antibiotics in micro-organisms in its resistant form is determined relative to its non-resistant form. The amount is expressed in % change of fluorescence (decrease and increase, respectively) of an antibiotic which carries a fluorescent label.
# [2] = system: 23S rRNA; conditions: cited from earlier work
# [3] = system: VISA, Vancomycin intermediary SA; assay: Binding of fluorescently labelled antibiotic, resistant vs non-resistant form (Table 3); format: cell-based, Staphylococcus aureus; conditions: increased binding; fluorescent-labelled antibiotic, resistant relative to non-resistant form
# Method: as §1
# [4] = system: VRE, Vancomycin resistant Enterococci; assay: as above; format: cell-based; conditions: resistant relative to non-resistant form
# Method: as §1
# [5] = system: VRE, Vancomycin resistant Enterococci; conditions: mechanism column; reduction of affinity in resistant form; cited from earlier work
# [6] = system: VRS, Vancomycin resistant Staph; assay: Binding of fluorescently labelled antibiotic, resistant vs non-resistant form (Table 3); format: cell-based, Staphylococci (CNS); conditions: increased binding; fluorescent-labelled antibiotic, resistant relative to non-resistant form
# Method: as §1
# [7] = system: ESBL, Extended Spectrum β-Lactamase Enterobacteriaceae; assay: as above; format: cell-based; conditions: increase of binding; fluorescent-labelled antibiotic, resistant relative to non-resistant form
# Method: as §1
# [8] = system: ESBL, Extended Spectrum β-Lactamase Acinetobacter; assay: as above; format: cell-based; conditions: increase of binding; fluorescent-labelled antibiotic, resistant relative to non-resistant form
# Method: as §1
# [9] = system: ESBL, Extended Spectrum β-Lactamase BCC; assay: as above; format: cell-based; conditions: increase of binding; fluorescent-labelled antibiotic, resistant relative to non-resistant form
# Method: as §1
# [10] = system: ESBL, Extended Spectrum β-Lactamase Pseudomonas spp.; assay: as above; format: cell-based; conditions: increase of binding; fluorescent-labelled antibiotic, resistant relative to non-resistant form
# Method: as §1
# [11] = system: ESBL, Extended Spectrum β-Lactamase Stenotrophomonas maltophilla; assay: as above; format: cell-based; conditions: increase of binding; fluorescent-labelled antibiotic, resistant relative to non-resistant form
# Method: as §1
# [12] = system: CA-MRSA, Community acquired MRSA; format: cell-based, Staphylococcus aureus; conditions: resistant relative to non-resistant form
# Method: as §1
# [13] = system: ORSA, Oxacillin resistant SA; assay: Binding of fluorescently labelled antibiotic, resistant vs non-resistant form (Table 3); format: cell-based, Staphylococcus aureus; conditions: resistant relative to non-resistant form
# Method: as §1
# [14] = system: MRSA, Methicillin Resistant SA; assay: as above; format: cell-based, Staphylococcus aureus; conditions: resistant relative to non-resistant form
# Method: as §1
# [15] = system: BORSA, Border line oxacillin resistant SA; assay: as above; format: cell-based, Staphylococcus aureus; conditions: resistant relative to non-resistant form
# Method: as §1
# [16] = reduction of binding, fluorescent-labelled antibiotic
compound,measurement,setting,value
[H]/N=C(/N)N[C@H]1[C@H](O)[C@@H](O)[C@H](O[C@@H]2O[C@@H](C)[C@](O)(C=O)[C@H]2O[C@@H]2O[C@@H](CO)[C@H](O)[C@@H](O)[C@@H]2NC)[C@@H](N/C(N)=N\[H])[C@@H]1O [Streptomycin],% Change in Fluorescenc,[1]; [16],>80% reduction
same,Effect of resistance on fluorescence,[1],Reduction in Streptomycin binding
same,Phenotype,"[2]; 23S rRNA position 2661, ""G to C"", E. coli, when expressed with Smr, hyperaccurate S12 mutation",streptomycin dependent
CN[C@H](CC(C)C)C(=O)N[C@H]1C(=O)N[C@@H](CC(N)=O)C(=O)N[C@H]2C(=O)N[C@H]3C(=O)N[C@H](C(=O)N[C@H](C(=O)O)c4cc(O)cc(O)c4-c4cc3ccc4O)[C@H](O)c3ccc(c(Cl)c3)Oc3cc2cc(c3O[C@@H]2O[C@H](CO)[C@@H](O)[C@H](O)[C@H]2O[C@H]2C[C@](C)(N)[C@H](O)[C@H](C)O2)Oc2ccc(cc2Cl)[C@H]1O [Vancomycin],% Change in Fluorescenc,[3],20-50%
same,% Change in Fluorescenc,[4]; [16],>80%
same,Effect of resistance on fluorescence,[4],Reduction of vancomycin
same,Reduced affinity to Van,[5],Reduced affinity to Van by 3 orders of magnitude
same,% Change in Fluorescenc,[6],>50%
O=C(O)[C@H]1/C(=C/CO)O[C@@H]2CC(=O)N21 [clavulanic acid],% Change in Fluorescenc,[7],>80%
same,% Change in Fluorescenc,[8],>80%
same,% Change in Fluorescenc,[9],>80%
same,% Change in Fluorescenc,[10],>80%
same,% Change in Fluorescenc,[11],>80%
CC[C@H]1OC(=O)[C@H](C)[C@@H](O[C@H]2C[C@@](C)(OC)[C@@H](O)[C@H](C)O2)[C@H](C)[C@@H](O[C@@H]2O[C@H](C)C[C@H](N(C)C)[C@H]2O)[C@](C)(O)C[C@@H](C)C(=O)[C@H](C)[C@@H](O)[C@]1(C)O [eyrthomycin],Phenotype: growth rate,"[2]; 23S rRNA 2017 U to G, E. coli",Reduced growth
CCC[C@@H]1C[C@@H](C(=O)N[C@@H]([C@H]2O[C@H](SC)[C@H](O)[C@@H](O)[C@H]2O)[C@@H](C)O)N(C)C1 [lincomycin],Phenotype,"[2]; 23S rRNA position 2611, ""C to G"", Chlamydomonas reinhardtii (Harris et al. 1989)",low level
same,Phenotype,"[2]; 23S rRNA position 2611, ""C to U"", Chlamydomonas reinhardtii (Harris et al. 1989)",low level
CC[C@H]1NC(=O)[C@@H](NC(=O)c2ncccc2O)[C@@H](C)OC(=O)[C@H](c2ccccc2)NC(=O)[C@@H]2CC(=O)CCN2C(=O)[C@H](Cc2ccc(N(C)C)cc2)N(C)C(=O)[C@@H]2CCCN2C1=O [pristinamycin 1A] ({Picolinoyl(3-OH)}-T[dAbu]P[NMePhe(4-NMe2)][Pip(4-oxo)][Phg]; ester 1-C),Phenotype (binding on peptidyl transferase loop),"[2]; 23S rRNA position 2500, U2500A/C2501A, E. coli",Inhibits binding of 1A
same,Phenotype (binding on peptidyl transferase loop),"[2]; 23S rRNA position 2602, A2602C/C2501A, E. coli",Inhibits binding of 1A
CSC[S@+]([O-])C[C@H](CO)NC(=O)/C=C/c1c(C)[nH]c(=O)[nH]c1=O [sparsomycin],Phenotype (resistance),"[2]; 23S rRNA position 2452 ""C to U"", Halobacterium halobium (Tan et al. 1996)",Low level sparsomycin
C=C(NC(=O)C(=C)NC(=O)c1csc(C2=N[C@@H]3c4csc(n4)[C@H]4NC(=O)c5csc(n5)[C@H]([C@](C)(O)[C@@H](C)O)NC(=O)[C@H]5CSC(=N5)/C(=C/C)NC(=O)[C@H]([C@@H](C)O)NC(=O)c5csc(n5)[C@]3(CC2)NC(=O)[C@H](C)NC(=O)C(=C)NC(=O)[C@H](C)NC(=O)[C@H]([C@@H](C)CC)N[C@@H]2C=Cc3c([C@H](C)O)cc(nc3[C@H]2O)C(=O)O[C@@H]4C)n1)C(N)=O [thiostrepton],Phenotype: binding of thiostrepton,"[2]; 23S rRNA 1056 G to C, E. coli, RNA fragments",weakened in RNA
same,Phenotype: drug binding affinity,"[2]; 23S rRNA 1067 A to C, E. coli",affinity is reduced similarly.
same,Phenotype: level of resistance,"[2]; 23S rRNA 1067 A to C, E. coli",A to C or U confers high
same,Phenotype: drug binding affinity,"[2]; 23S rRNA 1067 A to G, E. coli",affinity is reduced similarly.
same,Phenotype: level of resistance,"[2]; 23S rRNA 1067 A to G, E. coli",confers intermediate level
same,Phenotype: drug binding affinity,"[2]; 23S rRNA 1067 A to U, E. coli",affinity is reduced similarly.
same,Phenotype: level of resistance,"[2]; 23S rRNA 1067 A to U, E. coli",A to C or U confers high
same,Phenotype: thiostrepton resistance in poly (U) translation,"[2]; 23S rRNA 1067 A to U, E. coli, mutant constituted 30% of the total 23S rRNA pool in the ribosomes",ribosomes; exhibited 30%
COc1cc(Cc2cnc(N)nc2N)cc(OC)c1OC [trimethoprim],Effect of resistance on fluorescence,[12],binding. Maintaims binding
Penicillin [listing 1 of 2 here],% Change in Fluorescenc,[13]; [16],> to ≈80%
same,% Change in Fluorescenc,[14]; [16],> to ≈80%
same,Effect of resistance on fluorescence,[14],Reduction of Penicillin binding
same,% Change in Fluorescenc,[15]; [16],> to ≈80%
same,% Change in Fluorescenc,[12]; [16],> to ≈80%
Penicillin [listing 2 of 2 here],Effect of resistance on fluorescence,[13],Reduction of Penecillin
same,Effect of resistance on fluorescence,[15],Reduction of Penecillin
same,Effect of resistance on fluorescence,[12],Reduction of Penecillin
spiramycin,Phenotype,"[2]; 23S rRNA position 2611, ""C to G"", Chlamydomonas reinhardtii (Gauthier et al. 1988)",spiramycin resistance
same,Phenotype,"[2]; 23S rRNA position 2611, ""C to G"", Yeast mitochondria (Sor and Fukahara 1984)",spiramycin resistance

# — patent US20140295417A1, “IDENTIFICATION OF ANTIBIOTIC RESISTANCE” (priority 2011, published 2014)
